According to patent US7932281B2, “Amine-based compound and use thereof” (Kureha Corporation, priority 2004, dated 2011):

Key:
[1] = system: HIV-1IIIB infected MT-4 cells; test: Anti-HIV activity, HIV-1IIIB infected MT-4 cells, MTT method (Test Example 1); format: cell-based; conditions: Human immunodeficiency virus 1, MT4, 120 h, concentration required for inhibition of cell disorder due to HIV infection by 50%, MOI 0.01, 5 days
Protocol: Immediately after infection, HIV-1IIIB infected MT-4 cells (3.0×10^4/well, MOI (Multiplicity of infection): 0.01) were added to a 96-well microtiter plate together with the test compounds having different concentrations. The cells were cultured in a carbon dioxide incubator at 37° C. for 5 days, and the number of living cells was measured in accordance with the MTT (tetrazolium) method ([…], et al., J. of Virol. Method, 20, 309-321 […]). The antiviral activity is represented by the concentration required for inhibition of cell disorder due to HIV infection by 50% (EC50: 50% Effective Concentration) (μM), and the results are shown in Table 2.

[2] = target: T1, CXCR4 (Homo sapiens, UniProt P61073); test: Inhibition of 125I-SDF-1α binding to receptors CXCR4 on MT-4 cells (Test Example 2); conditions: binding-inhibition % at 0.01 μM, 2 hours under ice-cooling, read-out: Inhibition rate (%)
T1 construct: endogenous in cells; host or cells: MT-4 cells
T1 sequence (P61073 whole entry): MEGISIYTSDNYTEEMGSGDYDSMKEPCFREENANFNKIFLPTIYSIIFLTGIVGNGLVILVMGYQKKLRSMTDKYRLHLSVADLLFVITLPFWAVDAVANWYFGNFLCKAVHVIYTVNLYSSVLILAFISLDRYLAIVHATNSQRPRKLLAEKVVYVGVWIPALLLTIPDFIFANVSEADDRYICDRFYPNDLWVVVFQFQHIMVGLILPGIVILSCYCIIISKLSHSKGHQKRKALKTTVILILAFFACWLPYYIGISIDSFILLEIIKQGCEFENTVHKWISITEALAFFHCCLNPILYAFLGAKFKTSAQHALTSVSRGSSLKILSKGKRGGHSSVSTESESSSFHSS
Protocol: MT-4 cells (5×10^6/0.2 ml/well) were cultured on a 24-well microtiter plate. After the cells were incubated for 24 hours at 37° C. in a carbon dioxide gas incubator, a culture medium was replaced with a buffer solution (0.1% BSA-containing RPMI-1640). Together with a ligand ^125I-SDF-1α (specific activity: 2,200 Ci/mmol; available from Daiichi Pure Chemicals Co., Ltd. (Tokyo)), test materials with various concentrations were subjected to a binding reaction for 2 hours under ice-cooling. […] Then, a rate of inhibition of the binding between radioactive ligands and receptors CXCR4 by a test material was calculated (a binding-inhibition % at 0.01 μM).

[3] = system: SD mice; test: Acute toxicity, single transvenous administration (Test Example 3); format: in vivo; conditions: 6-week-old male SD mice, 2.5 mg/kg transvenously once in physiological saline
Protocol: The aforementioned compound was examined for acute toxicity. Specifically, 6-week-old SD mice (male) were divided into several groups (2 to 3 mice in each group). Subsequently, each of the compounds of Examples was dissolved in a physiological saline solution, and the solution was transvenously administered to the mice (dose: 2.5 mg/kg) once. Then, the number of dead mice was counted.

[4] = Conversion of Compound No. 91 to Compound No. 84 in human serum, LCMS (Test Example 5); format: in vitro ADME; conditions: for Proportion found by LCMS, Human, 0 minutes / Proportion found by LCMS, Human, 30 minutes: Compound No. 91 incubated in human serum/saline
Protocol: (§1) 147 μl of human serum pool (manufactured by Cosmo Bio Co. Ltd.) or pool serum obtained by centrifugation (3,500 rpm for 10 minutes) of whole blood collected from a Crj:CD (SD) IGS male rat (manufactured by Charles River Laboratories Japan, INC.) was dispensed in a tube. 147 μl of a physiological saline solution (manufactured by Hikari Pharmaceutical Co., Ltd.) was dispensed thereto. Subsequently, the whole was preincubated for 3 minutes. The solution was added and mixed with a solution (3 μl) obtained by: diluting a 25 mmol/l DMSO solution containing the Compound No. 91 with a physiological saline solution to adjust to 500 μmol/l. The reaction was allowed to start in a thermomixer. After 30 minutes later, the solution was added with 0.1% formic acid/methanol solution (600 μl) and the whole was mixed. The solution was subjected to centrifugation (15,000 rpm for 5 minutes) and the supernatant was subjected to LCMS (liquid chromatograph mass spectrometry) measurement.

[5] = Conversion of Compound No. 91 to Compound No. 84 in rat serum, LCMS (Test Example 5); format: in vitro ADME; conditions: for Proportion found by LCMS, Rat, 0 minutes / Proportion found by LCMS, Rat, 30 minutes: Compound No. 91 incubated in rat serum/saline
Protocol: as §1

SMILES	EC50 [1] [nM]	inhibition at 0.01 µM [2] [%]	Dead mice/test mice [3]	Proportion found by LCMS, Human, 0 minutes [4] [%]	Proportion found by LCMS, Human, 30 minutes ([4]; 30 minutes) [%]	Proportion found by LCMS, Rat, 0 minutes [5] [%]	Proportion found by LCMS, Rat, 30 minutes ([5]; 30 minutes) [%]	conversion of prodrug in serum ([4]; human serum, 30 minutes)	conversion of prodrug in serum ([5]; rat serum, 30 minutes)
CCCN(CCC)CCCCN(CC(=O)O)Cc1ccc(CN(Cc2ncc[nH]2)Cc2nccn2C)cc1 [Compound No. 84, [(4-dipropylamino-butyl)-(4-[[(1H-imidazol-2-ylmethyl)-(1-methyl-1H-imidazol-2-ylmethyl)-amino]-methyl]-benzyl)-amino]-acetic acid]	3	88.3	0/3	1	80	24	100	–	–
CCCN(CCC)CCCCN(CC(=O)OCC)Cc1ccc(CN(Cc2ncc[nH]2)Cc2nccn2C)cc1 [Compound No. 91]	3	87.7	0/3	99	20	76	0	converted to the Compound No. 84	converted to the Compound No. 84
